The subject of series [1] is Cyperus serotinus, Rottb. Put plainly: Preemergence weed control under flooded paddy conditions, CYPSE (Flatsedge). The class given is in vivo. The following applies: rated three to four weeks after treatment.
Series [2] concerns Echinochloa oryzoides (Ard.) Fritsch. Put plainly: Preemergence weed control under flooded paddy conditions, ECHORC (Watergrass (Calif.)). The class given is in vivo. The following applies: flooded paddy, rated three to four weeks after treatment.
For series [3], the system named is Oryza sativa, (L.) Tebonnet. Description: Rice tolerance to post-transplant applications under flooded paddy conditions (Example 187), ORYSAT (Rice, Tebonnet). As to conditions: rated three to four weeks after treatment.
A further series deals with Sagittaria pygmaea, L. Description: Preemergence weed control under flooded paddy conditions, SAGPY (Arrowhead (Pygmaea)). The following applies: flooded paddy, rated three to four weeks after treatment. It is filed as in vivo.
The test system of a further series is Cyperus iria. Description: Preemergence weed control under flooded paddy conditions, CYPIR (Rice Flatsedge). The class given is in vivo. As to conditions: flooded paddy, rated three to four weeks after treatment.
For series [4], the system named is Monochoria vaginalis, Presl. Put plainly: Preemergence weed control under flooded paddy conditions, MOOVA (Monochoria). The class given is in vivo. The following applies: preemergence weeds, flooded paddy, rated three to four weeks after treatment.
Setting [5] is: Rate 0.0320 kg/ha, preemergence.
Setting [6] is: Rate 0.0620 kg/ha, preemergence.
Setting [7] is: Rate 0.1250 kg/ha, preemergence.
Setting [8] is: Rate 0.2500 kg/ha, preemergence.
Where [9] appears, read: Rate 0.2500 kg/ha, preemergence weeds.
[10] abbreviates: Rate 0.0320 kg/ha, preemergence weeds.
Setting [11] is: Rate 0.0620 kg/ha, preemergence weeds.
The mark [12] stands for this setting: Rate 0.1250 kg/ha, preemergence weeds.

This note sets out measurements from patent EP0908457B1, “3-(1,2-benzisothiazol- and isoxazol-5-Y1)-2,4(1H,3H)-pyrimidinedione or thione and 3-(1,2-benzisothiazol- and isoxazol-5-y1)-4(3H)-pyrimidinone or thione herbicidal agents” (BASF AKTIENGESELLSCHAFT, priority 1997, dated 1999).

Structures are written as SMILES.
Further: meaning of each grade not given here.

As to `CCC(=O)COC(=O)COc1ccc(C)cc1-c1nsc2ccc(-n3c(=O)cc(C(F)(F)F)n(C)c3=O)cc12` [Example 577, Acetic acid, {{2-{5-[3,6-dihydro-3-methyl-2,6-dioxo-4-(trifluoromethyl)-1(2H)-pyrimidinyl]-1,2-benzisothiazol-3-yl}-p-tolyl}oxy}-, 2-oxobutyl ester], the “herbicidal effect rating, CYPSE” value in series [1] (setting [5]) is 0.0; in series [1] (setting [6]) it was 3.0; in series [1] (setting [7]), 3.0; in series [1] (setting [8]), 3.0. The “herbicidal effect rating, ECHORC” value in series [2] (setting [5]) was determined as 6.0; in series [2] (setting [6]), 7.0; in series [2] (setting [7]) it was 7.0; in series [2] (setting [8]), 9.0. Further, the “herbicidal effect rating ORYSAT” value in series [3] (Rate 0.0320 kg/ha) is 4.0; in series [3] (Rate 0.0620 kg/ha), 5.0; in series [3] (Rate 0.1250 kg/ha), 5.0; in series [3] (Rate 0.2500 kg/ha), 9.0. Also, the “herbicidal effect rating, SAGPY” value with Sagittaria pygmaea, L. (setting [5]) was 4.0; in the series with Sagittaria pygmaea, L. (setting [6]) it was 6.0; in the series with Sagittaria pygmaea, L. (setting [7]), 6.0; with Sagittaria pygmaea, L. (setting [8]), 6.0. The “herbicidal effect rating, CYPIR” value with Cyperus iria (setting [5]) was found to be 2.0; in the series on Cyperus iria (setting [6]), 4.0; with Cyperus iria (setting [7]), 7.0; in the series with Cyperus iria (setting [8]) it was 9.0.

On to `C#CCOC(=O)COc1ccc(OC)cc1-c1nsc2ccc(-n3c(=O)cc(C(F)(F)F)n(C)c3=O)cc12` [Example 349, Acetic acid, {2-{5-[3,6-dihydro-3-methyl-2,6-dioxo-4-(trifluoromethyl)-1(2H)-pyrimidinyl]-1,2-benzisothiazol-3-yl}-4-methoxyphenoxy}-, 2-propynyl ester], for which the “herbicidal effect rating, CYPSE” value in series [1] (setting [5]), in series [1] (setting [6]), in series [1] (setting [7]) and in series [1] (setting [9]) was 4.0 in each case. Also, the “herbicidal effect rating, ECHORC” value was found to be 5.0 in series [2] (setting [5]), 5.0 in series [2] (setting [6]), 6.0 in series [2] (setting [7]) and 7.0 in series [2] (setting [9]). Also, the “herbicidal effect rating ORYSAT” value in series [3] (Rate 0.0320 kg/ha) turned out to be 4.0; in series [3] (Rate 0.0620 kg/ha), 5.0; in series [3] (Rate 0.1250 kg/ha), 7.0; in series [3] (Rate 0.2500 kg/ha), 7.0. In addition, the “herbicidal effect rating, SAGPY” value in the series with Sagittaria pygmaea, L. (setting [5]) is recorded as 4.0; with Sagittaria pygmaea, L. (setting [6]), 5.0; with Sagittaria pygmaea, L. (setting [7]), 5.0; in the series with Sagittaria pygmaea, L. (setting [9]) it was 6.0. In addition, the “herbicidal effect rating, CYPIR” value with Cyperus iria (setting [5]) was 0.0; in the series with Cyperus iria (setting [6]), 4.0; in the series with Cyperus iria (setting [7]) it was 7.0; in the series on Cyperus iria (setting [9]), 7.0.

For `Cn1c(C(F)(F)F)cc(=O)n(-c2ccc3snc(C(Cl)Br)c3c2)c1=O` (stereo not drawn) [Example 300, 2,4(1H,3H)-Pyrimidinedione, 3-[3-(bromochloromethyl)-1,2-benzisothiazol-5-yl]-1-methyl-6-(trifluoromethyl)-], the “herbicidal effect rating, ECHORC” value was determined as 3.0 in series [2] (setting [10]), 6.0 in series [2] (setting [11]), 7.0 in series [2] (setting [12]) and 9.0 in series [2] (setting [9]). The “herbicidal effect rating ORYSAT” value is reported as 2.0 in series [3] (Rate 0.0320 kg/ha), 4.0 in series [3] (Rate 0.0620 kg/ha), 4.0 in series [3] (Rate 0.1250 kg/ha) and 5.0 in series [3] (Rate 0.2500 kg/ha). In addition, the “herbicidal effect rating, MOOVA” value in series [4] (Rate 0.0320 kg/ha), in series [4] (Rate 0.0620 kg/ha), in series [4] (Rate 0.1250 kg/ha) and in series [4] (Rate 0.2500 kg/ha) was 9.0 in each case. In addition, the “herbicidal effect rating, SAGPY” value in the series on Sagittaria pygmaea, L. (setting [10]) was determined as 2.0; in the series on Sagittaria pygmaea, L. (setting [11]), 5.0; in the series on Sagittaria pygmaea, L. (setting [12]), 6.0; in the series with Sagittaria pygmaea, L. (setting [9]) it was 7.0. The “herbicidal effect rating, CYPIR” value in the series with Cyperus iria (setting [10]) is 3.0; with Cyperus iria (setting [11]), 6.0; with Cyperus iria (setting [12]), 9.0; in the series with Cyperus iria (setting [9]), 9.0.
